The source of these data is patent US5194424A, “C^63 -amide derivatives of 34-de(acetylglucosaminyl)-34-deoxy-teicoplanin and their use as medicaments against bacteria resistant to glycopeptide antibiotics” (Gruppo Lepetit SpA, priority 1988, dated 1993).

The subject of experiment [1] is Streptococcus faecalis ATCC 7080. In words: In vitro MIC, standard agar-dilution test in microtiter. It is filed as cell-based. To be noted: TODD-HEWITT broth, inoculum about 10^4 CFU/ml, 18-24 h at 37° C. The protocol: (§1) The antibacterial activity, of the compounds of the invention is determined in vitro by means of standard agar-dilution tests in microtiter. ISOSENSITEST broth (Oxoid) and TODD-HEWITT broth (Difco) are used for growing Staphylococci and Streptococci. respectively. Broth cultures are diluted so that the final inoculum is about 10^4 forming units/ml (CFU/ml).

Experiment [2] deals with Staphylococcus epidermidis ATCC 12228. Described as above. The experiment is classed as cell-based. To be noted: ISOSENSITEST broth, inoculum about 10^4 CFU/ml, 18-24 h at 37° C. The protocol: as §1
The test system of experiment [3] is Staphylococcus aureus TOUR. The description is as above. It is filed as cell-based. To be noted: ISOSENSITEST broth, inoculum about 10^4 CFU/ml, 18-24 h at 37° C. The method, then:
as §1

Experiment [4] has as its system Streptococcus pyogenes C 203. Described as above. The experiment is classed as cell-based. To be noted: TODD-HEWITT broth, inoculum about 10^4 CFU/ml, 18-24 h at 37° C. The method, then: as §1
Experiment [5] concerns Staphylococcus haemolyticus L 602. The description is as above. As to conditions: ISOSENSITEST broth, inoculum about 10^4 CFU/ml, 18-24 h at 37° C. It is filed as cell-based. The method, then:
(§2) The antibacterial activity, of the compounds of the invention is determined in vitro by means of standard agar-dilution tests in microtiter. ISOSENSITEST broth (Oxoid) and TODD-[…] broth (Difco) are used for growing Staphylococci and Streptococci. respectively. Broth cultures are diluted so that the final inoculum is about 10^4 forming units/ml (CFU/ml).

Experiment [6] deals with Streptococcus pneumoniae UC 41. Described as above. As to conditions: TODD-HEWITT broth, inoculum about 10^4 CFU/ml, 18-24 h at 37° C. The experiment is classed as cell-based. The protocol: as §2
Experiment [7] relates to glycopeptide-resistant E. faecalis. In words: In vitro MIC against glycopeptide-resistant Enterococci. The experiment is classed as cell-based. The method, then:
(§3) In particular, the activity of the compounds of the invention was confirmed through in vitro experiments carried out with clinical isolates resistant to glycopeptide antibiotics such as with Enterococci faecalis, Enterococci faecium, as shown in Table IIa.
(§4) The antibacterial activity is determined in vitro by means of standard
(§5) agardilution tests in microtiter. ISOSENSITEST broth (Oxoid) is used for
(§6) growing Enterococci. Broth cultures are diluted so that the final inoculu
(§7) is about 5 × 10^5 forming units/ml (CFU/ml).

The test system of experiment [8] is glycopeptide-resistant E. faecium. The description is as above. The experiment is classed as cell-based. The protocol: as §3, §4, §5, §6, §7
In experiment [9] the test system is clinical isolates of Streptococcus pyogenes. In words: MIC against clinical isolates of Streptococcus pyogenes. The experiment is classed as cell-based. The protocol: as §1
In experiment [10] the test system is Streptococcus pyogenes C 203. To be noted: comparison statement for teicoplanin and prior-art compounds; never lower than; cited from earlier work.
Where [11] appears, read: E. faecium L 1666, ISOSENSITEST broth, inoculum about 5 × 10^5 CFU/ml.

As for `CC(C)CCCCCCC(=O)N[C@H]1[C@H](Oc2c3cc4cc2Oc2ccc(cc2Cl)CC2NC(=O)C(NC(=O)C4NC(=O)C4NC(=O)C(Cc5ccc(c(Cl)c5)O3)NC(=O)C(N)c3ccc(O)c(c3)Oc3cc(O)cc4c3)c3ccc(O)c(c3)-c3c(O[C@H]4O[C@H](CO)[C@@H](O)[C@H](O)[C@@H]4O)cc(O)cc3C(C(=O)NCCCN(C)C)NC2=O)O[C@H](CO)[C@@H](O)[C@@H]1O` (stereo partly shown) [Compound 6], the MIC in experiment [1] came out at 2 microgram/ml; in experiment [2], 0.12 microgram/ml; in experiment [3], 2 microgram/ml; in [4], 0.06 microgram/ml; in experiment [5] it was 1 microgram/ml; in experiment [6], 0.25 microgram/ml.
With `CC(C)CCCCCCC(=O)N[C@H]1[C@H](Oc2c3cc4cc2Oc2ccc(cc2Cl)CC2NC(=O)C(NC(=O)C4NC(=O)C4NC(=O)C(Cc5ccc(c(Cl)c5)O3)NC(=O)C(N)c3ccc(O)c(c3)Oc3cc(O)cc4c3)c3ccc(O)c(c3)-c3c(O[C@H]4O[C@H](CO)[C@@H](O)[C@H](O)[C@@H]4O)cc(O)cc3C(C(=O)NCCCNCCO)NC2=O)O[C@H](CO)[C@@H](O)[C@@H]1O` (stereo partly shown) [Compound 7], the MIC came to 2 microgram/ml in experiment [1]; 0.06 microgram/ml in experiment [2]; 1 microgram/ml in experiment [3]; 0.032 microgram/ml in [4]; 1 microgram/ml in experiment [5]; 0.25 microgram/ml in experiment [6].
As for `CC(C)CCCCCCC(=O)N[C@H]1[C@H](Oc2c3cc4cc2Oc2ccc(cc2Cl)CC2NC(=O)C(NC(=O)C4NC(=O)C4NC(=O)C(Cc5ccc(c(Cl)c5)O3)NC(=O)C(N)c3ccc(O)c(c3)Oc3cc(O)cc4c3)c3ccc(O)c(c3)-c3c(O[C@H]4O[C@H](CO)[C@@H](O)[C@H](O)[C@@H]4O)cc(O)cc3C(C(=O)NCCCN(CCCN)CCCN)NC2=O)O[C@H](CO)[C@@H](O)[C@@H]1O` (stereo partly shown) [Compound 33], the MIC is on record as 0.12 microgram/ml in experiment [1]; 0.004 microgram/ml in experiment [2]; 0.12 microgram/ml in experiment [3]; 0.004 microgram/ml in [4]; 0.032 microgram/ml in experiment [5]; 0.12 microgram/ml in experiment [6].
Consider `CN[C@H](CC(C)C)C(=O)N[C@H]1C(=O)N[C@@H](CC(N)=O)C(=O)N[C@H]2C(=O)N[C@H]3C(=O)N[C@H](C(=O)N[C@H](C(=O)O)c4cc(O)cc(O)c4-c4cc3ccc4O)[C@H](O)c3ccc(c(Cl)c3)Oc3cc2cc(c3O[C@@H]2O[C@H](CO)[C@@H](O)[C@H](O)[C@H]2O[C@H]2C[C@](C)(N)[C@H](O)[C@H](C)O2)Oc2ccc(cc2Cl)[C@H]1O` [VANCO, vancomycin], for which the MIC in experiment [7] (Enterococcus faecalis) is more than 128 µg/mL; in experiment [7] (Enterococcus faecalis, NCTC12201), more than 128 µg/mL; in experiment [7] (Enterococcus faecalis, NCTC12202), more than 128 µg/mL; in experiment [8] (setting [11]), more than 128 µg/mL; in [8] (Enterococcus faecium) it was more than 128 µg/mL; in [8] (Enterococcus faecium, NCTC12203) it was more than 128 µg/mL.
For the molecule teicoplanin, the MIC in [9] (S. pyogenes strain L-33), in experiment [9] (S. pyogenes strain L-317), in experiment [9] (S. pyogenes strain L-800), in experiment [9] (S. pyogenes strain L-801), in experiment [9] (S. pyogenes strain L-802) and in [9] (S. pyogenes strain L-803) was 0.063 microgram/ml in each case. Also, the MIC came to 0.063 microgram/ml in experiment [9] (S. pyogenes strain L-804); 0.063 microgram/ml in experiment [9] (S. pyogenes strain L-805); 0.063 microgram/ml in experiment [9] (S. pyogenes strain L-1303); 0.125 microgram/ml in [9] (S. pyogenes strain L-1304); 0.125 microgram/ml in experiment [9] (S. pyogenes strain L-1306); 0.063 microgram/ml in experiment [9] (S. pyogenes strain L-1315). For the same molecule, the MIC is 0.063 microgram/ml in [9] (S. pyogenes strain L-1316); 0.063 microgram/ml in [9] (S. pyogenes strain L-1318); 0.063 microgram/ml in experiment [9] (S. pyogenes strain L-1319); more than 128 µg/mL in [7] (E. faecalis L 560, ISOSENSITEST broth, inoculum about 5 × 10^5 CFU/ml); 128 µg/mL in [7] (E. faecalis NCTC 12201, ISOSENSITEST broth, inoculum about 5 × 10^5 CFU/ml); 128 µg/mL in experiment [7] (E. faecalis NCTC 12202, ISOSENSITEST broth, inoculum about 5 × 10^5 CFU/ml). Further, the MIC in experiment [8] (setting [11]) is more than 128 µg/mL; in [8] (E. faecium NCTC 12203, ISOSENSITEST broth, inoculum about 5 × 10^5 CFU/ml) it was 64 µg/mL; in experiment [8] (E. faecium NTCT 12204, ISOSENSITEST broth, inoculum about 5 × 10^5 CFU/ml), 64 µg/mL. In experiment [10], the “MIC against Streptococcus pyogenes” value is not below 0.06 microgram/ml.
